From patent US6569883B1, “Medicaments” (Glaxo Group Limited, priority 1985, dated 2003)

What was measured:
Assay type in all cases: in vivo
guinea-pigs = assay: Gastric emptying in guinea-pigs (passage of barium sulphate spheres, X-ray location); settings: guinea pig
Protocol: Test compound: 1,2,3,9-tetrahydro-9-methyl-3-[(2-methyl-1H-imidazol-1-yl)methyl]-4H-carbazol-4-one hydrochloride dihydrate. The effect of the test compound on gastric emptying was determined in guinea-pigs by following the progress of polystyrene-coated barium sulphate spheres (1 mm diameter) through the gut. The experimental method was based on that described by B. Costall et. al., Eur. J. Pharmacol 91, 197-205, 1983 and B. Cox et. al., Br. J. Pharmacol. 70, 104, 1980.
The spheres (approximatley 30 in number) were administered orally in 0.2 ml carboxymethylcellulose with 0.05 ml glycerine. At the same time, the test compound was administered intraperitoneally at doses of 0.001, 0.01 and 0.1 mg/kg. The control animals received saline, administered intraperitoneally, in place of the test compound. Passage of the spheres through the gut was monitored at 30-60 minute intervals over a period of 2 hours by X-ray location. The number of spheres leaving the stomach was recorded and expressed as a percentage of the total.

ferrets [1] = assay: Cisplatin-induced emesis in ferrets, test compound i.v.; settings: ferret
Protocol: Both the test compound and cisplatin were prepared and administered in normal saline. The dose of test compound was calculated as the free base.
Emesis was induced in groups of 6 male ferrets weighing between 1.5-2 kg, by intravenous administration of cisplatin at a dose of 10 mg/kg. The onset of emesis occurred between 38 and 75 minutes after injection and over a period of 2 hours the number of vomits/retches (episodes) was in the range 30-62 (average 42±5 vomits/retches per 2 h). Behavioural changes characteristic of emesis were also noted.
The test compound was administered to groups of 6 male ferrets (1.5-2 kg) by intravenous administration at doses of 0.01, 0.1 and 1 mg/kg, immediately prior to administration of cisplatin as described above.

ferrets [2] = assay: Cisplatin-induced emesis in ferrets, test compound i.p.; settings: ferret, cisplatin 9 mg/kg i.p. + test compound 1 mg/kg i.p. 30 minutes before and 1 hour after cisplatin
Protocol: Thus cisplatin was administered intraperitoneally to a group of 4 male ferrets at a dose of 9 mg/kg, and the time to onset of emesis and the number of emetic episodes were recorded. In a second group of four male ferrets the test compound was administered at a dose of 1 mg/kg i.p. 30 minutes before and 1 hour after intraperitoneal administration of cisplatin.

[3] = cisplatin 10 mg/kg i.v. + test compound 0.01 mg/kg i.v.

Cc1nccn1CC1CCc2c(c3ccccc3n2C)C1=O.Cl.O.O (stereo not drawn) [test compound, 1,2,3,9-tetrahydro-9-methyl-3-[(2-methyl-1H-imidazol-1-yl)methyl]-4H-carbazol-4-one hydrochloride dihydrate]
Mean % Increase in gastric emptying (± s.e.) (guinea-pigs; 0.001 mg/kg i.p., 1 hour): 21 ± 8.7%
Mean % Increase in gastric emptying (± s.e.) (guinea-pigs; 0.001 mg/kg i.p., 2 hours): 57 ± 10.5%
Mean % Increase in gastric emptying (± s.e.) (guinea-pigs; 0.01 mg/kg i.p., 1 hour): 33 ± 3.6%
Mean % Increase in gastric emptying (± s.e.) (guinea-pigs; 0.01 mg/kg i.p., 2 hours): 76.5 ± 11.2%
Mean % Increase in gastric emptying (± s.e.) (guinea-pigs; 0.1 mg/kg i.p., 1 hour): 47 ± 7.6%
Mean % Increase in gastric emptying (± s.e.) (guinea-pigs; 0.1 mg/kg i.p., 2 hours): 68 ± 5.0%
Duration of emesis (ferrets [1]; [3]): 1 h
Intensity of emesis (ferrets [1]; [3]): 17 ± 2.9 episodes 2 h
Onset of emesis (ferrets [1]; [3]): 89 to 109 min
Emesis and behavioural changes (ferrets [1]; cisplatin 10 mg/kg i.v. + test compound 0.1 mg/kg i.v.): Emesis and behavioural changes were completely
Emesis and behavioural changes (ferrets [1]; cisplatin 10 mg/kg i.v. + test compound 1 mg/kg i.v.): Emesis and behavioural changes were completely
Emetic response (onset of emesis, emetic episodes, retches) (ferrets [2]): emetic response completely
